Results on 6 compounds are retold here after PubChem BioAssay AID1259407 (Chemical Carcinogenesis Research Information System (CCRIS), 2018).

The source made the active and inactive calls. The rule behind the calls is not given here.

The test system of the data set is CCRIS mutagenicity, Ames/micronucleus/aberration tests. As to the kind of experiment: CCRIS mutagenicity studies.
[1] abbreviates: Test System: AMES SALMONELLA TYPHIMURIUM, Strain/Indicator: TA98, Metabolic Activation: NONE, Method: STANDARD PLATE.
[2] abbreviates: Test System: AMES SALMONELLA TYPHIMURIUM, Strain/Indicator: TA98, Metabolic Activation: RAT, LIVER, S-9, AROCLOR 1254, Method: STANDARD PLATE.
Where [3] appears, read: Test System: AMES SALMONELLA TYPHIMURIUM, Strain/Indicator: TA100, Metabolic Activation: NONE, Method: STANDARD PLATE.
[4] abbreviates: Test System: AMES SALMONELLA TYPHIMURIUM, Strain/Indicator: TA100, Metabolic Activation: RAT, LIVER, S-9, AROCLOR 1254, Method: STANDARD PLATE.

`OCl`: the mutagenic call reads like this: (End Point: IN VIVO MICRONUCLEUS, Test System: BONE MARROW POLYCHROMATIC ERYTHROCYTES, Species: MOUSE, Strain/Sex: DDY/MALE, Route: IP) “inactive; negative”; (Test System: AMES SALMONELLA TYPHIMURIUM, Strain/Indicator: TA97, Metabolic Activation: NONE, Method: PREINCUBATION) “inactive; negative”; (Test System: AMES SALMONELLA TYPHIMURIUM, Strain/Indicator: TA97, Metabolic Activation: RAT, LIVER, S-9, AROCLOR 1254, Method: PREINCUBATION) “inactive; negative”; (Test System: AMES SALMONELLA TYPHIMURIUM, Strain/Indicator: TA98, Metabolic Activation: NONE, Method: FLUCTUATION TEST) “inactive; negative”; under setting [1], “inactive; negative”; under setting [2], “inactive; negative”. Further, the mutagenic call reads like this: (Test System: AMES SALMONELLA TYPHIMURIUM, Strain/Indicator: TA100, Metabolic Activation: NONE, Method: FLUCTUATION TEST) “inactive; negative”; under setting [3], “inactive; negative”; under setting [4], “inactive; negative”; (Test System: AMES SALMONELLA TYPHIMURIUM, Strain/Indicator: TA102, Metabolic Activation: NONE, Method: FLUCTUATION TEST) “inactive; negative”; (Test System: AMES SALMONELLA TYPHIMURIUM, Strain/Indicator: TA102, Metabolic Activation: NONE, Method: PREINCUBATION) “inactive; negative”; (Test System: AMES SALMONELLA TYPHIMURIUM, Strain/Indicator: TA102, Metabolic Activation: RAT, LIVER, S-9, AROCLOR 1254, Method: PREINCUBATION) “inactive; negative”. Moreover, the mutagenic call reads like this: (Test System: AMES SALMONELLA TYPHIMURIUM, Strain/Indicator: TA1535, Metabolic Activation: NONE, Method: STANDARD PLATE) “inactive; negative”; (Test System: AMES SALMONELLA TYPHIMURIUM, Strain/Indicator: TA1535, Metabolic Activation: RAT, LIVER, S-9, AROCLOR 1254, Method: STANDARD PLATE) “inactive; negative”; (Test System: AMES SALMONELLA TYPHIMURIUM, Strain/Indicator: TA1537, Metabolic Activation: NONE, Method: STANDARD PLATE) “inactive; negative”; (Test System: AMES SALMONELLA TYPHIMURIUM, Strain/Indicator: TA1537, Metabolic Activation: RAT, LIVER, S-9, AROCLOR 1254, Method: STANDARD PLATE) “inactive; negative”; (Test System: AMES SALMONELLA TYPHIMURIUM, Strain/Indicator: TA1538, Metabolic Activation: NONE, Method: STANDARD PLATE) “inactive; negative”; (Test System: AMES SALMONELLA TYPHIMURIUM, Strain/Indicator: TA1538, Metabolic Activation: RAT, LIVER, S-9, AROCLOR 1254, Method: STANDARD PLATE) “inactive; negative”. For the same compound, the mutagenic call is “inactive; negative” (Test System: CHINESE HAMSTER OVARY, Strain/Indicator: CHO-K1-BH4 (HGPRT), Metabolic Activation: NONE, Method: STANDARD PLATE) and “inactive; negative” (Test System: UDS RODENT HEPATOCYTES, Strain/Indicator: THY INCORP (NON-S-PHASE), Metabolic Activation: NONE, Method: LIQUID SCINTILLATION COUNTING).
Turning to `CNCCCC(=O)O`, the mutagenic call by setting is: (Test System: AMES SALMONELLA TYPHIMURIUM, Strain/Indicator: TA97, Metabolic Activation: NONE, Method: STANDARD PLATE) “inactive; negative”; (Test System: AMES SALMONELLA TYPHIMURIUM, Strain/Indicator: TA97, Metabolic Activation: RAT, LIVER, S-9, AROCLOR 1254, Method: STANDARD PLATE) “inactive; negative”; under setting [1], “inactive; negative”; (Test System: AMES SALMONELLA TYPHIMURIUM, Strain/Indicator: TA98, Metabolic Activation: RAT, LIVER, S-9, AROCLOR 1254, Method: PREINCUBATION) “inactive; negative”; under setting [2], “inactive; negative”; under setting [3], “inactive; negative”. Besides, the mutagenic call under setting [4] is “inactive; negative”; the mutagenic call (Test System: AMES SALMONELLA TYPHIMURIUM, Strain/Indicator: TA102, Metabolic Activation: NONE, Method: STANDARD PLATE) is “inactive; negative”; the mutagenic call (Test System: AMES SALMONELLA TYPHIMURIUM, Strain/Indicator: TA102, Metabolic Activation: RAT, LIVER, S-9, AROCLOR 1254, Method: STANDARD PLATE) was “inactive; negative”; the mutagenic call (Test System: AMES SALMONELLA TYPHIMURIUM, Strain/Indicator: TA104, Metabolic Activation: NONE, Method: STANDARD PLATE) is “inactive; negative”; the mutagenic call (Test System: AMES SALMONELLA TYPHIMURIUM, Strain/Indicator: TA104, Metabolic Activation: RAT, LIVER, S-9, AROCLOR 1254, Method: PREINCUBATION) was “inactive; negative”; the mutagenic call (Test System: AMES SALMONELLA TYPHIMURIUM, Strain/Indicator: TA104, Metabolic Activation: RAT, LIVER, S-9, AROCLOR 1254, Method: STANDARD PLATE) was “inactive; negative”. The mutagenic call (Test System: AMES SALMONELLA TYPHIMURIUM, Strain/Indicator: TA2638, Metabolic Activation: NONE, Method: STANDARD PLATE) was “inactive; negative”; the mutagenic call (Test System: AMES SALMONELLA TYPHIMURIUM, Strain/Indicator: TA2638, Metabolic Activation: RAT, LIVER, S-9, AROCLOR 1254, Method: STANDARD PLATE) is “inactive; negative”; the mutagenic call (Test System: AMES SALMONELLA TYPHIMURIUM, Strain/Indicator: UTH8413, Metabolic Activation: NONE, Method: STANDARD PLATE) is “inactive; negative”; the mutagenic call (Test System: AMES SALMONELLA TYPHIMURIUM, Strain/Indicator: UTH8413, Metabolic Activation: RAT, LIVER, S-9, AROCLOR 1254, Method: STANDARD PLATE) was “inactive; negative”; the mutagenic call (Test System: AMES SALMONELLA TYPHIMURIUM, Strain/Indicator: UTH8414, Metabolic Activation: NONE, Method: STANDARD PLATE) was “inactive; negative”; the mutagenic call (Test System: AMES SALMONELLA TYPHIMURIUM, Strain/Indicator: UTH8414, Metabolic Activation: RAT, LIVER, S-9, AROCLOR 1254, Method: STANDARD PLATE) was “inactive; negative”.
With `CC(C)CCC[C@@H](C)[C@H]1CC[C@H]2[C@@H]3CC4([C@H]5C[C@@H](Br)CC[C@]5(C)[C@H]3CC[C@]12C)S(=O)(=O)CCS4(=O)=O`, the mutagenic call was “inactive; negative” (Test System: AMES SALMONELLA TYPHIMURIUM, Strain/Indicator: TA97A, Metabolic Activation: NONE); “active; positive” (Test System: AMES SALMONELLA TYPHIMURIUM, Strain/Indicator: TA97A, Metabolic Activation: RAT, LIVER, S-9, AROCLOR 1254); “inactive; negative” (Test System: AMES SALMONELLA TYPHIMURIUM, Strain/Indicator: TA98, Metabolic Activation: NONE); “inactive; negative” (Test System: AMES SALMONELLA TYPHIMURIUM, Strain/Indicator: TA100, Metabolic Activation: NONE); “inactive; negative” (Test System: AMES SALMONELLA TYPHIMURIUM, Strain/Indicator: TA100, Metabolic Activation: RAT, LIVER, S-9, AROCLOR 1254); “active; positive” (Test System: AMES SALMONELLA TYPHIMURIUM, Strain/Indicator: TA102, Metabolic Activation: NONE). Moreover, the mutagenic call is, setting by setting: (Test System: AMES SALMONELLA TYPHIMURIUM, Strain/Indicator: TA102, Metabolic Activation: RAT, LIVER, S-9, AROCLOR 1254) “active; positive”; (Test System: AMES SALMONELLA TYPHIMURIUM, Strain/Indicator: TA104, Metabolic Activation: NONE) “active; positive”; (Test System: AMES SALMONELLA TYPHIMURIUM, Strain/Indicator: TA104, Metabolic Activation: RAT, LIVER, S-9, AROCLOR 1254) “active; positive”.
In the case of `CC(=O)C[C@@H]1CCCCCC(=O)O[C@H](CC(C)=O)CCC(=O)CCC(=O)O1`, the mutagenic call (Test System: CHINESE HAMSTER V-79, Strain/Indicator: V-79 (HPRT)/6-THIOGUANINE, Metabolic Activation: NONE) is “active; positive”.
For the compound `CC(=O)Nc1cc2c(cc1Cl)-c1ccccc1C2`, the mutagenic call under setting [2] is “active; positive”.
On to `CC(=O)Oc1c(OC(C)=O)c2c([N+](=O)[O-])ccc3c4ccccc4c4cccc1c4c23`, for which the mutagenic call runs as follows: (Test System: AMES SALMONELLA TYPHIMURIUM, Strain/Indicator: TA98, Metabolic Activation: NONE', Method: STANDARD PLATE) “active; positive”; under setting [3], “active; positive”.
